Test results taken from US9512156B2, “Carbon monoxide releasing rhenium compounds for medical use” (UNIVERSITY OF ZURICH, priority 2010, dated 2016).

Experiments:
[1] = system: neonatal rat cardiomyocyte (NRC); assay: Cytotoxicity towards neonatal rat cardiomyocytes under normal conditions; type: cell-based; settings: normal physiological conditions, up to a tested concentration of 120 μM
Protocol: B12-CORM-2 and 4 (Scheme 3) were tested for their cytotoxic and their cytoprotective effects using the neonatal rat cardiomyocyte (NRC) cell-based model of ischemia-reperfusion injury (I/R) as previously described (Zobi et al., Inorg. Chem. 2010, 49, 7313-7322). The membrane-impermeable ReII-CORMs studied so far were non-toxic in the micromolar concentration range. To test for the possible uptake of B12-CO-RMs by cells incubation of NRCs with 30 μM of B12-CORM-2 and 4 was performed and cell culture medium samples were collected over 180 min of incubation. […] The fraction of dead cells tended to decrease in the presence of CORMs, but, due to the high variability, the differences were not statistically significant (2.7±1.7% in control vs 1.1±0.3 and 1.0±0.2 in the presence of B12-CORM-2 and B12-CORM-4 respectively).

[2] = system: neonatal rat ventricular cardiomyocytes (NRCs); settings: Zobi et al., Inorg. Chem. 2010, 49, 7313-7322; cited from earlier work
[3] = system: horse skeletal myoglobin (Mb); assay: Detection of CO release using the myoglobin assay (conversion of Mb to MbCO); type: biochemical; settings: pH 7.4, 25° C.
Protocol: Changes in the Mb spectra were recorded over time at 25° C. The methanol or DMSO content of the solution never exceeded 0.5%. […] The MbCO concentration was plotted over time and directly related to the equivalents of CO released from the compounds. The half-life of CO release from the Re compounds at different pH's was then estimated from the graphs. Control experiments were run under identical conditions but without addition of the metal complexes. All manipulations were performed under a pure N2 atmosphere in a wet box.
The final methanol or DMSO content of the buffered aqueous solution never exceeded 0.5%. The conversion of Mb to carbon monoxide myoglobin (MbCO) was followed over time by measuring the changes in the absorption spectra of the Q band region of this protein at pH 7.4, 6.3 and 5.8 after addition of the Re^II complex.
The amount of MbCO formed over time after addition of the Re complex to the Mb solution was calculated according to the known extinction coefficients. The MbCO concentration was directly related to the equivalents of CO released from the compounds and these were plotted as a function of time.

[4] = Solubility in water and organic solvents; type: physicochemical
[5] = system: intracellular reduced glutathione (GSH) in NRCs; assay: Intracellular reduced glutathione (GSH) in NRCs after ischemia and 10 min of reperfusion; type: cell-based, rat; settings: 30 μM, 10 min after the onset of reperfusion
Protocol: FIG. 9. Regulation of oxygen availability and the intracellular reduced glutathione content by Re-CORMs. A: Reduction in oxygen content in the incubation medium within 10 min after addition of 60 μM of 2, 6 and B12-CORM-2; N=6-8. Given are means±SEM. B: Intracellular reduced glutathione (GSH) content in NRCs exposed to 16 h of ischemia and 10 min of reperfusion in the presence or absence of CO-RMs. N=4 Data are means±SEM.
Oxidative stress triggered by acute hyperoxygenation is a hallmark of reperfusion injury. Based on the findings presented in FIG. 9A selected CORMs may be viewed as oxygen scavengers which, when applied early on during reperfusion, may reduce the cellular oxidative damage. To test this hypothesis intracellular reduced glutathione (GSH) levels were determined in cells 10 min after the “onset of reperfusion” in the presence or absence of 30 μM 2, 6 and B12-CORM-2. […] (FIG. 9B). This acute antioxidative effect of 2 most likely reflects the ability of the intermediates formed upon CO release to react with oxygen forming ReO4^−.

[6] = Deoxygenation of cell-free incubation medium; settings: within minutes after administration, dose-dependent (FIG. 9A: 60 μM, 10 min)
Source text: Therefore, the effect of the three selected CO-RMs on oxygen consumption by NRCs was investigated.

[7] = Stability under aerobic conditions (solid, solution); type: physicochemical

| SMILES | cytotoxicity towards NRCs [1] | cytoprotective effects against I/R injury [2] | stability as solids under aerobic conditions [7] | further results |
| --- | --- | --- | --- | --- |
| CC[N+](CC)(CC)CC.CC[N+](CC)(CC)CC.[Br][Re-2]([Br])([Br])[Br].[C-]#[O+].[C-]#[O+] [Compound 2, [Et4N]2[Re^IIBr4(CO)2]] | no cytotoxicity | substantial cytoprotective effects | – | time to saturation of Mb with CO liberated from the compound [3]: ≤ 30 min; solubility in water [4]: well soluble in water; intracellular reduced glutathione (GSH) levels [5]: increase; deoxygenation of the cell-free medium [6]: resulted in deoxygenation |
| Cn1ccnc1.Cn1ccnc1.[Br][Re][Br].[C-]#[O+].[C-]#[O+] [Compound 3, [ReBr2(CO)2(MeIm)2]] | – | – | slowly decomposed over time | – |
| [Br][Re][Br].[C-]#[O+].[C-]#[O+].c1ccc2[nH]cnc2c1.c1ccc2[nH]cnc2c1 [Compound 4, [ReBr2(CO)2(BzIm)2]] | – | – | indefinitely stable | – |
| Cc1ccncc1.Cc1ccncc1.[Br][Re][Br].[C-]#[O+].[C-]#[O+] [Compound 5, [ReBr2(CO)2(4-pic)2]] | – | – | indefinitely stable | – |
| [Br][Re]([Br])([n+]1cc[nH]c1)[n+]1cc[nH]c1.[C-]#[O+].[C-]#[O+] [Compound 6, cis-trans-[Re^II(CO)2Br2(Im)2]] | no cytotoxicity | substantial cytoprotective effects | – | – |
